Source: patent publication US20220041691A1, “METHODS FOR DIAGNOSING OR TREATING POST-TRAUMATIC STRESS DISORDER, AND COMPOSITIONS THEREFOR” (Centre for Addiction and Mental Health, priority 2018, published 2022)
Entries after “also recorded” stand apart in the source; their conditions may differ.

How the values were obtained:
[1] = tested on: GR phosphorylation at S211; experiment: Western blot of GR phosphorylation at S211 in brain lysate of fear-conditioned mice; assay type: in vivo, mouse; conditions: brain lysate of fear-conditioned mice injected with TAT or TAT-GRpep; p<0.05, n=3
Excerpt: To further investigate these findings, surface plasmon resonance (SPR) was used to estimate association and dissociation rates between GR and FKBP51. […] Thus, GR S211 phosphorylation seems to reduce GR affinity for FKBP51. Conversely, disruption of the GR-FKBP51 complex with TAT-GRpep could increase GR S211 phosphorylation, which is what was observed when comparing fear-conditioned mice treated with TAT-GRpep vs. TAT control or no treatment (FIG. 5 I-J).
Co-immunoprecipitation and Western blot analyses were performed as previously described.^24, 25, 26 For co-immunoprecipitation, 500˜1000 μg solubilized protein was extracted from whole mouse brain and incubated with primary antibody or control IgG (2˜4 μg) for 4 hrs at 4° C., followed by the addition of 25 μl protein A/G plus agarose (Santa Cruz Biotechnology) for 12 hrs. Pellets were washed, boiled for 5 min in SDS sample buffer and subjected to SDS-PAGE. 50˜100 μg of total protein extract was used as control in each experiment. After transfer of proteins into nitrocellulose, membranes were Western blotted with the primary antibodies. The intensity of protein level was quantified by densitometry (software: ImageLab, Bio-Rad). […]

fear-conditioned mice = experiment: Cued fear conditioning, peptide injected into right amygdala or motor cortex; assay type: in vivo, mouse
Protocol: Next, testing was performed to determine whether disrupting the GR-FKBP51 complex could reduce freezing behaviors in fear-conditioned mice as a model for PTSD-related symptoms. […] The animals were then subjected to two days of extinction, where the same cues were presented without foot shock, before cued fear memory was assessed. One hour before the fear memory assessment, animals were injected with either control peptide (TAT) or treatment peptide (TAT-GRpep) into the right amygdala. […] However, two-way ANOVA confirmed a significant effect of the cue (F1, 46=10.387, p<0.01) and peptide (F1,46=7.708, p<0.01). […] Both treatment groups reacted similarly to the cue (p=NS; FIG. 3E).
Some of the animals were later subjected to implantation of cannula into either amygdala (AP−1.5, LM−3.0, DV−4.8) or motor cortex (AP+2.1, LM−2.0, DV−1.0). Following surgeries, animals were allowed one week to recover before subjected to any experimental procedures.
Animals were first given a five-minute habituation to the apparatus (Habitest, Colbourne Instruments). Then, animals were exposed to 30 seconds of cue exposure (an in-house white light), which co-terminated with one second of foot-shock (0.5 mA). […]
The expression of fear (in a different context from training) was assessed 24 hours after the last extinction training. […] The duration of freezing behaviors was recorded by a blinded experimenter. […]

GR-FKBP52 complex = experiment: Co-immunoprecipitation of GR-FKBP52 complex in mouse brain slices; assay type: cell-based; conditions: 10 μM, 30 min, vs untreated controls or TAT alone, p<0.05, n=3
Protocol: To test this hypothesis, the effect of TAT-GRpep on GR-FKBP52 levels was examined using co-immunoprecipitation. […] Similar results were also obtained using confocal microscope in primary mouse neuron cultures.
(§1) Co-immunoprecipitation and Western blot analyses were performed as previously described.^24, 25, 26 For co-immunoprecipitation, 500˜1000 μg solubilized protein was extracted from whole mouse brain and incubated with primary antibody or control IgG (2˜4 μg) for 4 hrs at 4° C., followed by the addition of 25 μl protein A/G plus agarose (Santa Cruz Biotechnology) for 12 hrs. Pellets were washed, boiled for 5 min in SDS sample buffer and subjected to SDS-PAGE. 50˜100 μg of total protein extract was used as control in each experiment. After transfer of proteins into nitrocellulose, membranes were Western blotted with the primary antibodies. The intensity of protein level was quantified by densitometry (software: ImageLab, Bio-Rad).
Acute brain slices (350 μm thick) were prepared from C57Bl/6 mice with a McIlwain tissue chopper (Mickle Laboratory Engineering, Gomshall, United Kingdom). After being dissected from the brain, mouse cerebral hemispheres were left for 5 min in ice-cold artificial cerebrospinal fluid (aCSF) containing 126 mM NaCl, 2.5 mM KCl, 1 mM MgCl2, 1 mM CaCl2, 1.25 mM KH2PO4, 26 mM NaHCO3 and 20 mM glucose, which was bubbled continuously with carbogen (95% O2/5% CO2). […]

GR-FKBP51 complex = target: T1, GR-FKBP51 complex (Mus musculus, UniProt Q64378); experiment: Co-immunoprecipitation of GR-FKBP51 complex in brain and lymphocyte lysate of fear-conditioned mice injected with peptide; assay type: in vivo
T1 construct: from tissue; host or cells: C57Bl/6 mouse brain (acute slices; whole-brain lysate) and blood lymphocytes
T1 sequence (Q64378 1-456): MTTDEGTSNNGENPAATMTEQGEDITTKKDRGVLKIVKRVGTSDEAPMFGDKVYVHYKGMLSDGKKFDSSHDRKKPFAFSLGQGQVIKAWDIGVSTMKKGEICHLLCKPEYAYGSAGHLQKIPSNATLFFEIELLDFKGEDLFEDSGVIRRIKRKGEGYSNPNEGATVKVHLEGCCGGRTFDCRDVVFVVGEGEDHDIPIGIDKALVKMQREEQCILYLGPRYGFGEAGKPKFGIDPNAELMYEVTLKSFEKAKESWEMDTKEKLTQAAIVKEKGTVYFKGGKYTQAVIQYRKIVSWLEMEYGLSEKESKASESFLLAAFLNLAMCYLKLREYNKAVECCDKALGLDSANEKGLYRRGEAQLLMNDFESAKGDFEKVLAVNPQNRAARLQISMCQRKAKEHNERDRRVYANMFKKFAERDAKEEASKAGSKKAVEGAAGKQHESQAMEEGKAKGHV
Protocol: Furthermore, testing was performed to determine whether disrupting the GR-FKBP51 complex reduced consolidation of cued fear memory. Thus, TAT or TAT-GRpep was administered two hours after the end of fear conditioning training (FIG. 4C), before five consecutive daily extinction sessions of cue exposure without shock.
as §1

Question: What does the source list for “GRKKRRQRRRPQSPWRSDLLIDENCLL (Amino Acid Sequence of TAT-GRpep Peptide)”?
Answer: GR phosphorylation at S211 [1]: able to block the decrease of GR phosphorylation at S211; also recorded: blocked the decrease in GR S211 phosphorylation; freezing behavior, cued fear memory assessment (fear-conditioned mice; injected into right amygdala one hour before assessment, after two days of extinction, vs control peptide, p<0.01): significantly lower level of freezing behavior; also recorded: significantly less freezing than controls; freezing behavior, cued fear memory assessment (fear-conditioned mice; peptide infused into motor cortex instead of amygdala, p=NS): did not affect freezing; GR-FKBP52 complex (FKBP52 co-immunoprecipitated by GR antibody) (GR-FKBP52 complex): more FKBP52 was co-immunoprecipitated by GR antibody; also recorded: significantly increased the amount of GR-FKBP52 complex; GR-FKBP51 complex level in brain (co-immunoprecipitation) (GR-FKBP51 complex; brain lysate of fear-conditioned mice injected with TAT or TAT-GRpep, p<0.05, n=3): able to block the increase of GR-FKBP51 complex; also recorded: disrupt the GR-FKBP51 complex; GR-FKBP51 complex level in lymphocyte lysate / peripheral blood (co-immunoprecipitation) (GR-FKBP51 complex; lymphocyte lysate from blood of fear-conditioned mice, p<0.01 vs TAT, n=4): able to disrupt the GR-FKBP51 complex
